These results are taken from BindingDB's records for doi:10.1021/jm200004e (University of Louisiana At Monroe, 2011).

Molecules are shown by their SMILES. *1 amine or outer side, *2 acyl side, *3 side chain or, on linkers, in order; H or OH if unused. Where a SMILES comes first, the peptide text is derived from it. [ ]: non-standard residue; d: D form. X1 = O=C(CCc1cccc2c1oc1c(CCN[*:1])cccc12)[*:2]

The assay is described as follows: Inhibition of CD2 assessed as inhibition of CD2-CD58 protein-protein interaction mediated cell adhesion between CD58 expressing sheep red blood cells and CD2 expressing human Jurkat cells by E-rosettes assay.

The IC50 is the point on the concentration scale where inhibition reaches its midpoint. With `CC[C@H](C)[C@@H]1NC(=O)[C@H](Cc2ccc(O)cc2)NC(=O)[C@H](CC(=O)O)NC(=O)CCc2cccc3c2Oc2c(cccc2-3)CCNC(=O)[C@H](CC(=O)O)NC(=O)[C@H](CC(=O)O)NC(=O)[C@H](CCCCN)NC1=O` (cyclo(DD[X1]DYIK)), the IC50 came to 25.7 nM.
